Our source for the cytotoxicity values is ChEMBL document CHEMBL3507680, “University of Dundee, Gates Library screen for HepG2 cell viability”.

A short description of this data set: Human HepG2 cell viability assay in 384 well format. The arrangement: dose 125 nL, time 70.5 hour; concentration not given beside the values. Type of data set: toxicity, cell-based. The settings on record: HepG2 cells, read-out: Inhibition.
With `Cc1cc2[nH]c(=O)c(=O)[nH]c2cc1S(=O)(=O)NC1CCC(C)CC1` (stereo not drawn), the cytotoxicity at 70.5 h was -5.16%. In the case of `O=C1c2c(O)cc(O)cc2O[C@@H](c2ccc(O)cc2)[C@@H]1O`, the cytotoxicity at 70.5 h was -7.81%. Consider `COC(=O)[C@@H]1Cc2ncn(C)c2CN1S(=O)(=O)c1ccc(Cl)cc1`, for which the cytotoxicity at 70.5 h worked out at 10.2%.

Regarding `CC(=O)N1CC[C@H]2CC(=O)N(C3CC3)CC[C@H]2C1`, the cytotoxicity at 70.5 h was 14.2%.

As for `COc1ccc(CN2C[C@H](O)C[C@H]2c2nc(-c3ccccc3)no2)cc1`, the cytotoxicity at 70.5 h was 9.25%. Regarding `CCN(CC)CC[C@H]1CN(C(=O)C2CCC2)CC[C@H]1CC(=O)O`, the cytotoxicity at 70.5 h is 5.37%. To `Cc1ccc(-c2noc([C@@H]3C[C@H](NC(=O)CC(C)(C)C)CN3C)n2)cc1` belongs -2%. For `Cc1noc([C@@H]2C[C@H](NC(=O)Nc3ccccc3)CN2C)n1`, the cytotoxicity at 70.5 h is -1.94%. As to `CC(C)NC(=O)C[C@@H]1CCNC[C@@H]1Cc1cc(-c2ccccn2)on1`, the cytotoxicity at 70.5 h was -16.5%.

Consider `COC(=O)[C@@H]1CN(S(=O)(=O)c2ccccc2)CCN1S(C)(=O)=O`, for which the cytotoxicity at 70.5 h is -7.6%. Next, `Cc1nn(-c2ccccn2)c(C)c1[C@@H]1C=C[C@@H](NC(=O)CCC(=O)O)C1`: -6.4%; `N#Cc1ccc(CN2C[C@@H]3OCC(=O)N[C@@H]3C2)cc1`: -5.15%; `c1cc(-c2noc([C@@H]3Cc4nc[nH]c4CN3)n2)ccn1`: 1.06%. To `CC(C)N1C[C@@H](F)[C@@H](OCc2nc3ncccc3[nH]2)C1` belongs -0.523%.

Regarding `Oc1cccc(-c2cc(CC3(N(CC4CC4)CC4CC4)COC3)no2)c1`, the cytotoxicity at 70.5 h was -6.61%.

Turning to `CC1(C)[C@H](Cc2cc(CO)on2)C[C@@H]1N(CC1CC1)CC1CC1`, the cytotoxicity at 70.5 h came to 5.68%. Next, `COC(=O)[C@@H]1Cc2ncn(C)c2CN1S(=O)(=O)c1ccc(C)cc1`: -8.32%; `CC(C)N1C[C@@H]2OCC(=O)N(Cc3ccccc3)[C@@H]2C1`: -10.2%. To `COc1ccc(-c2c[nH]c([C@@H]3COCCN3)n2)cc1` belongs 1.65%; to `CN1C[C@H](O)C[C@H]1c1nc(-c2ccc(OC(F)(F)F)cc2)no1`, -6.54%; to `Cn1ccnc1CN1C[C@H]2CN(S(C)(=O)=O)CCN2C1=O`, -0.342%.

Turning to `CC(C)c1noc([C@@H]2C[C@H](NS(=O)(=O)Cc3ccccc3)CN2C)n1`, the cytotoxicity at 70.5 h is -0.576%.

Turning to `CO[C@H]1COCCN(C(=O)c2ccc(C#N)cc2)C1`, the cytotoxicity at 70.5 h is 9.9%. `Cc1ccc(-c2cn3c(n2)CO[C@@H](CNCc2cnn(C)c2)C3)cc1`: the cytotoxicity at 70.5 h turned out to be 6.98%. To `CC(=O)N1CC[C@H](c2nnc(Cc3c[nH]c4ccccc34)o2)C1` belongs -3.38%; to `c1ccc(CNC[C@H]2COCc3nc4cccnc4n32)cc1`, 11.9%. Next, `CCNC(=O)N[C@H]1C[C@@H](Cc2cc(CN3CCCCC3)on2)C1(C)C`: -4.13%; `FC(F)(F)c1ccc2nc([C@H]3CCN(C4CCOCC4)C3)[nH]c2c1`: -12.9%. As for `Cc1nnc([C@H]2CCN(CCCc3ccccc3)C2)o1`, the cytotoxicity at 70.5 h is 8.95%. Consider `c1cncc(O[C@H]2COCCN(CC3CC3)C2)c1`, for which the cytotoxicity at 70.5 h amounted to 0.0943%.

On to `CC(C)Cc1cc(CC2(NCc3ccco3)COC2)no1`, for which the cytotoxicity at 70.5 h is -3.13%. Consider `COc1ccc(CNC2(Cc3cc(CC(C)C)on3)COC2)cc1`, for which the cytotoxicity at 70.5 h was found to be 9.64%. Regarding `COc1ccc(-c2noc([C@@H]3C[C@@H](O)CN3C3CCCCC3)n2)cc1`, the cytotoxicity at 70.5 h was -1.99%. As for `CC1=C[C@@H](CNS(C)(=O)=O)[C@H](C(C)C)C[C@H]1CC(=O)NCCN(C)C`, the cytotoxicity at 70.5 h was determined as 1.17%. As to `O=C(C1CC1)N1CC[C@H](c2nc3ccccc3o2)C1`, the cytotoxicity at 70.5 h was found to be 5.84%. Regarding `Cc1ccc(N2C(=O)N[C@@H]3CCN(C(=O)C4CCCC4)[C@@H]3C2=O)cc1`, the cytotoxicity at 70.5 h was -13.1%. Turning to `COc1ccc(CN2C[C@@H]3OCC(=O)N(Cc4nccn4C)[C@@H]3C2)cc1`, the cytotoxicity at 70.5 h was -3.1%.

`Cc1cc2c(C)cc(O)cc2c(=O)o1`: the cytotoxicity at 70.5 h was -14.8%. Next, `COc1ccc(NC(=O)Nc2c(O)c3ccccc3oc2=O)cc1`: -1.02%; `CCOCc1nc(N2CCOCC2)sc1C(=O)NCCCc1ccco1`: 0.741%. Next, `CCN(CC)CCNCC1CCOC(C)(C)C1` (stereo not drawn): -5.74%. To `CC(C)NC(=O)COc1cccc(-c2nc(C(C)C)no2)c1` belongs 20.9%. In the case of `COC(=O)c1ccccc1NC(=O)c1c(C)cn(C)c1CC(=O)O`, the cytotoxicity at 70.5 h was determined as 18.3%. Take `Cc1cc2[nH]c(=O)c(=O)[nH]c2cc1S(=O)(=O)NC1CCCCC1`: the cytotoxicity at 70.5 h is -3.77%. As to `COc1cccc(CNC(=O)CCC2=Nc3ccccc3S(=O)(=O)N2)c1`, the cytotoxicity at 70.5 h was -1.77%. On to `Cc1cccn2c(=O)cc(CSCC(=O)Nc3nnc(C(C)C)s3)nc12`, for which the cytotoxicity at 70.5 h was found to be 1.52%. Consider `CCn1nc(Br)nc1Sc1ccccc1NC(C)=O`, for which the cytotoxicity at 70.5 h was -0.88%.

Regarding `Cc1ccn(CCC(=O)NC(C)Cc2ccco2)n1` (stereo not drawn), the cytotoxicity at 70.5 h is -6.56%.

On to `Cc1nc(N2CCN(C)CC2)ncc1C(=O)N1CCCCC1`, for which the cytotoxicity at 70.5 h was -0.181%. For `CCN(CC)S(=O)(=O)c1ccc2c(c1)N(Cc1ccncc1)C(=O)CS2`, the cytotoxicity at 70.5 h was -3.41%. Next, `CCNC(=O)COc1cc(CC)c2c(C)nn(-c3ccc(C)cc3)c2n1`: -3.18%; `CCOCc1nc(N2CCCC2)sc1C(=O)NCCC(=O)OCC`: -6%; `CCOCCCNC(=O)C1(C)CCC(=O)N1c1cc(OC)ccc1OC` (stereo not drawn): -2.77%. As for `O=C1C[C@H]2[C@H](CCN2C(=O)c2cc[nH]n2)N1Cc1cccnc1`, the cytotoxicity at 70.5 h was -9.27%. Next, `CN(C)C(=O)N1CCC2(CC1)C(=O)N(CC1CCOC1)c1ccccc12` (stereo not drawn): -9.22%; `O=C(c1ccco1)N1CCC2(CCC(=O)N2Cc2ccccc2)CC1`: -11.1%; `Cc1cccc(CN2C(=O)CCC23CCN(C(=O)c2ccco2)CC3)c1`: -10.9%.

Turning to `CN(C)C(=O)N1CCN(c2ccc3ccc(C(=O)NC4CC4)cn23)CC1`, the cytotoxicity at 70.5 h was found to be 11.8%. For the compound `CN(C)C(=O)c1ccc2ccc(N3CCN(CC4CC4)CC3)n2c1`, the cytotoxicity at 70.5 h is 19.2%.

Take `CN1[C@@H](C(=O)NCC2CC2)C[C@@H]2CN(Cc3ccoc3)C[C@@H]21`: the cytotoxicity at 70.5 h amounted to 13.7%.

On to `CN(c1ccncn1)C1CC2(CCN(C(=O)c3cccs3)C2)C1` (stereo not drawn), for which the cytotoxicity at 70.5 h is -16.4%. To `Cc1ncccc1O[C@H]1CCN(C(=O)c2cccs2)CC[C@@H]1O` belongs -14.1%; to `CN(C(=O)C1CCCCC1)[C@@H]1CCC[C@@H](N2CCOCC2)[C@@H]1O`, -11.9%. To `O=C(c1ccc(F)cc1F)N1C[C@@H](O)[C@H](N2CCOCC2)C1` belongs -2.76%. `NCc1cn(-c2ccccc2C(=O)NCc2ccccc2)cn1`: the cytotoxicity at 70.5 h is -18.9%.

Consider `Cc1nc(C(=O)N2CCC(Cc3cnc4[nH]ccc4c3)C2)co1` (stereo not drawn), for which the cytotoxicity at 70.5 h is 18.9%. To `COc1cccc(OCC2CCCN(C(C)=O)C2)c1` (stereo not drawn) belongs -18.9%; to `CC(C)c1nccn1-c1cccc(C2CCCN(C3CCCC3)C2)n1` (stereo not drawn), -12.4%; to `COCCN1CCCC1c1nccnc1Nc1nc(C)cs1` (stereo not drawn), -21.9%. On to `Cc1ncncc1C(=O)Nc1cnn(CC(=O)NC2CCCC2)c1`, for which the cytotoxicity at 70.5 h was -19.5%. To `Cc1ncccc1O[C@H]1CCN(C(=O)Cc2cccs2)CC[C@@H]1O` belongs -7.99%; to `Cc1cn[nH]c1C1CCCCN1C(=O)CCN1CCCCCC1` (stereo not drawn), -36.7%; to `Cc1cc2c(=O)n3c(nc2s1)CCN(Cc1cnc(C(C)C)nc1)CC3`, -14.8%.

Turning to `Cc1cc2cc(C(=O)N3CC[C@H](O)[C@]4(CCCO4)C3)ccc2o1`, the cytotoxicity at 70.5 h was -18.1%. Consider `CC(C)c1nccn1-c1cccc(C2CCCN2S(=O)(=O)N(C)C)n1` (stereo not drawn), for which the cytotoxicity at 70.5 h is 0.791%. Next, `COCC(=O)NC[C@@]1(COc2cnccn2)C[C@@H](O)[C@@H](O)C1`: 13.8%. To `COCC(=O)NC[C@@]1(COc2cccnc2)C[C@@H](O)[C@@H](O)C1` belongs 3.07%; to `CNC(=O)C(C)(C)N1CCC[C@H]1C(=O)NCCN(C)C`, -16.8%; to `O=C1CC2(CCCNC2)C(=O)N1Cc1cccc(F)c1` (stereo not drawn), -8.03%. To `O=C1CC2(CCCNC2)C(=O)N1Cc1ccc(Cl)cc1` (stereo not drawn) belongs -15.9%. As for `O=C1CC2(CCCNC2)C(=O)N1Cc1cccc(Cl)c1` (stereo not drawn), the cytotoxicity at 70.5 h is 29.4%. For the compound `CCOc1ccccc1C(=O)N1CCCC1c1ncc2c(n1)CCNC2` (stereo not drawn), the cytotoxicity at 70.5 h came out at 22.9%. To `O=C(O)c1cc(NS(=O)(=O)c2ccc(Cl)s2)ccc1N1CCOCC1` belongs -2.78%; to `CC(C)CN1CCC2(C=C(C(=O)NC3CC3)c3ccccc32)CC1`, -11.9%. To `COCCN1CCC2(CCN(Cc3ccc(OC)cc3)CC2)C1=O` belongs -11.1%; to `CCO[C@@H]1CO[C@@]2(CCN(Cc3ccc4c(c3)OCO4)C2)C1`, -17.3%; to `CC(C)CN1CCC2(CCN(Cc3ccc(F)cc3)CC2)C1=O`, -5.32%. To `C[C@H]1CN(C(=O)c2ccoc2)C[C@@]12CCN(CCN(C)C)C2=O` belongs 14.7%; to `CC(C)NC(=O)CC1COC2(CCN(Cc3ccsc3)CC2)C1` (stereo not drawn), -9.99%. Consider `O=C(NCC1CC1)C1CCC2(CCN(C(=O)c3cccnc3)CC2)O1` (stereo not drawn), for which the cytotoxicity at 70.5 h was -9.48%. To `CC(=O)N1[C@H](CN(C)C)C[C@@H]2CN(C(=O)c3cncc(C)c3)CC[C@@H]21` belongs -10.6%.

Take `COc1ccc(CN2CCC3(CC2)CCN(CCN(C)C)C3=O)cc1`: the cytotoxicity at 70.5 h is -18%.

As for `O=C(COc1ccccc1)N1C[C@@H](O)[C@H](N2CCCC2)C1`, the cytotoxicity at 70.5 h was -12.1%.
